Source: patent US7491721B2, “Antimycobacterial pharmaceutical composition” (priority 2004, dated 2009)
≈ marks a conversion by molar mass, not a printed value. Where two headings read alike, the source gives them in different places.

How the values were obtained:
[1] = test system: sensitive/resistant strains of M. tuberculosis; test: Murine model of pulmonary tuberculosis, text statements not split by strain; assay type: in vivo, Mycobacterium tuberculosis; details: monotherapy
M. tuberculosis isolates = test: microbe, parasite or virus in culture; assay type: cell-based, Mycobacterium tuberculosis; details: for MIC50 / MIC90: Mycobacterium tuberculosis; for MIC50: read-out: MIC against M. tuberculosis isolates, MIC50; for MIC90: read-out: MIC against M. tuberculosis isolates, MIC90
resistant strain of MTB = assay type: in vivo, Mycobacterium tuberculosis; details: for dose giving 2 log reduction in the organs: animals infected with resistant strains
[2] = combination study, one month, doses mg/kg: (I) 25.0 where present, INH 25.0, RIF 20.0, PYR 150.0, ETH 100.0
[3] = combination study, three months, doses mg/kg: (I) 25.0 where present, INH 25.0, RIF 20.0, PYR 150.0, ETH 100.0
[4] = combination study, two months, doses mg/kg: (I) 25.0 where present, INH 25.0, RIF 20.0, PYR 150.0, ETH 100.0
[5] = monotherapy 12.5 mg/kg, 8 Weeks Treatment (two months)
[6] = monotherapy 12.5 mg/kg, 12 Weeks Treatment (three months)
[7] = monotherapy 12.5 mg/kg, one month of treatment
[8] = monotherapy 25 mg/kg, 8 Weeks Treatment (two months)
[9] = monotherapy 25 mg/kg, 12 Weeks Treatment (three months)
[10] = monotherapy 25 mg/kg, one month of treatment
[11] = monotherapy 50 mg/kg, 8 Weeks Treatment (two months)
[12] = monotherapy 50 mg/kg, 12 Weeks Treatment (three months)
[13] = monotherapy 50 mg/kg, one month of treatment

Row | SMILES | MIC50 (M. tuberculosis isolates) | MIC90 (M. tuberculosis isolates) | dose giving 2 log reduction in the organs (resistant strain of MTB) | Mean Log10CFU in organs of mice infected with resistant strain of MTB, Lung (resistant strain of MTB; [2]) | Mean Log10CFU in organs of mice infected with resistant strain of MTB, Spleen (resistant strain of MTB; [2]) | Mean Log10CFU in organs of mice infected with resistant strain of MTB, Lung (resistant strain of MTB; [3]) | Mean Log10CFU in organs of mice infected with resistant strain of MTB, Spleen (resistant strain of MTB; [3]) | Mean Log10CFU in organs of mice infected with resistant strain of MTB, Lung (resistant strain of MTB; [4]) | Mean Log10CFU in organs of mice infected with resistant strain of MTB, Spleen (resistant strain of MTB; [4]) | Mean Log10CFU in organs of mice infected with resistant strain of MTB, Lung (resistant strain of MTB; [5]) | Mean Log10CFU in organs of mice infected with resistant strain of MTB, Spleen (resistant strain of MTB; [5]) | Mean Log10CFU in organs of mice infected with resistant strain of MTB, Lung (resistant strain of MTB; [6]) | Mean Log10CFU in organs of mice infected with resistant strain of MTB, Spleen (resistant strain of MTB; [6]) | Mean Log10CFU in organs of mice infected with resistant strain of MTB, Lung (resistant strain of MTB; [7]) | Mean Log10CFU in organs of mice infected with resistant strain of MTB, Spleen (resistant strain of MTB; [7]) | Mean Log10CFU in organs of mice infected with resistant strain of MTB, Lung (resistant strain of MTB; [8]) | Mean Log10CFU in organs of mice infected with resistant strain of MTB, Spleen (resistant strain of MTB; [8]) | Mean Log10CFU in organs of mice infected with resistant strain of MTB, Lung (resistant strain of MTB; [9]) | Mean Log10CFU in organs of mice infected with resistant strain of MTB, Spleen (resistant strain of MTB; [9]) | Mean Log10CFU in organs of mice infected with resistant strain of MTB, Lung (resistant strain of MTB; [10]) | also measured
1 | Cc1c(CN2CCN(c3cccc(C(F)(F)F)c3)CC2)cc(-c2ccccc2)n1NC(=O)c1ccncc1 [Compound of formula (I)] | 0.12 µg/mL | 0.25 µg/mL | 12.5 mg/kg | 2.86 ± 0.37 Log10CFU | 2.25 ± 0.18 Log10CFU | 1.30 ± 1.02 Log10CFU | 1.64 ± 1.12 Log10CFU | 2.37 ± 0.81 Log10CFU | 2.52 ± 0.48 Log10CFU | 3.32 ± 0.6 Log10CFU | 3.1 ± 1.13 Log10CFU | 2.51 ± 0.18 Log10CFU | 2.6 ± 0.34 Log10CFU | 2.97 ± 0.53 Log10CFU | 3.02 ± 0.22 Log10CFU | 2.83 ± 0.66 Log10CFU | 2.61 ± 0.56 Log10CFU | 1.86 ± 0.97 Log10CFU | 1.79 ± 0.92 Log10CFU | 2.70 ± 0.36 Log10CFU | reduction in viable bacilli in the target organs as compared to control animals ([1]; one month (Table III)): > 2 log; animals with complete absence of mycobacterium ([1]; treated for three months): 33%; MIC against M. tuberculosis isolates, Range (M. tuberculosis isolates; approximately 200 sensitive and resistant clinical isolates): 0.12 to 0.5 µg/mL; Mean Log10CFU in organs of mice infected with resistant strain of MTB, Spleen (resistant strain of MTB; [10]): 2.54 ± 0.20 Log10CFU; Mean Log10CFU in organs of mice infected with resistant strain of MTB, Lung (resistant strain of MTB; [11]): 2.51 ± 0.72 Log10CFU; Mean Log10CFU in organs of mice infected with resistant strain of MTB, Spleen (resistant strain of MTB; [11]): 2.37 ± 0.61 Log10CFU; Mean Log10CFU in organs of mice infected with resistant strain of MTB, Lung (resistant strain of MTB; [12]): 1.79 ± 0.92 Log10CFU; Mean Log10CFU in organs of mice infected with resistant strain of MTB, Spleen (resistant strain of MTB; [12]): 1.69 ± 0.88 Log10CFU; Mean Log10CFU in organs of mice infected with resistant strain of MTB, Lung (resistant strain of MTB; [13]): 2.59 ± 0.22 Log10CFU; Mean Log10CFU in organs of mice infected with resistant strain of MTB, Spleen (resistant strain of MTB; [13]): 2.32 ± 0.39 Log10CFU
2 | CO[C@H]1/C=C/O[C@@]2(C)Oc3c(C)c(O)c4c(O)c(c(/C=N/N5CCN(C)CC5)c(O)c4c3C2=O)NC(=O)/C(C)=C\C=C\[C@H](C)[C@H](O)[C@@H](C)[C@@H](O)[C@@H](C)[C@H](OC(C)=O)[C@@H]1C [Rifampicin] | 4 µg/mL (≈ 4.86 µM) | > 16 µg/mL |  | 3.05 ± 0.43 Log10CFU | 2.44 ± 0.32 Log10CFU | 0.94 ± 1.04 Log10CFU | 1.78 ± 1.38 Log10CFU | 2.45 ± 1.15 Log10CFU | 2.60 ± 0.59 Log10CFU |  |  |  |  |  |  |  |  |  |  |  | 
3 | NNC(=O)c1ccncc1 [Isoniazid] | 4 µg/mL (≈ 29.2 µM) | > 16 µg/mL | > 50 mg/kg | 5.23 ± 0.27 Log10CFU | 4.61 ± 0.43 Log10CFU | 5.37 ± 0.35 Log10CFU | 5.19 ± 0.65 Log10CFU | 5.15 ± 0.42 Log10CFU | 5.36 ± 0.84 Log10CFU | 6.01 ± 0.9 Log10CFU | 5.88 ± 0.41 Log10CFU | 5.1 ± 0.7 Log10CFU | 5.72 ± 0.17 Log10CFU | 5.47 ± 0.54 Log10CFU | 5.01 ± 0.45 Log10CFU | 5.91 ± 0.35 Log10CFU | 5.7 ± 0.34 Log10CFU | 4.79 ± 0.55 Log10CFU | 5.62 ± 0.63 Log10CFU | 5.34 ± 0.34 Log10CFU | Mean Log10CFU in organs of mice infected with resistant strain of MTB, Spleen (resistant strain of MTB; [10]): 4.97 ± 0.52 Log10CFU; Mean Log10CFU in organs of mice infected with resistant strain of MTB, Lung (resistant strain of MTB; [11]): 5.42 ± 0.74 Log10CFU; Mean Log10CFU in organs of mice infected with resistant strain of MTB, Spleen (resistant strain of MTB; [11]): 5.1 ± 0.61 Log10CFU; Mean Log10CFU in organs of mice infected with resistant strain of MTB, Lung (resistant strain of MTB; [12]): 4.76 ± 0.20 Log10CFU; Mean Log10CFU in organs of mice infected with resistant strain of MTB, Spleen (resistant strain of MTB; [12]): 5.64 ± 066 Log10CFU; Mean Log10CFU in organs of mice infected with resistant strain of MTB, Lung (resistant strain of MTB; [13]): 4.77 ± 0.61 Log10CFU; Mean Log10CFU in organs of mice infected with resistant strain of MTB, Spleen (resistant strain of MTB; [13]): 4.83 ± 0.68 Log10CFU
